Data on six compounds can be found in patent publication US20260159474A1, “Aminoindane Compounds and Compositions and Methods of Their Therapeutic Use” (Solvonis Therapeutics Ireland Holdings Limited, priority 2021, published 2026).

This data set is described as follows: Plasma protein binding by equilibrium dialysis, human plasma. It counts as in vitro ADME. The note with it: for fraction unbound at 5 h, 0.5 μM: human, plasma, pH 7.4, read-out: Human Plasma (Fu %); for Human Plasma (Fu %): fraction unbound, 0.5 μM. As for the experimental part:
Methods: Plasma protein binding and blood tissue binding of test items (0.5 μM) was determined using biological samples from male Sprague Dawley (SD) rats and humans. […] Dexamethasone was used as a control compound for lung tissue binding. Various biological samples were spiked with test compounds according to the methods that follow.
Preparation of plasma or blood samples: An appropriate amount of test compound was dissolved in DMSO to yield a 10 mM solution. Further dilutions, to obtain 50 μM working solutions (WS), were then prepared using 50% acetonitrile in Milli-Q water. These 100×WS were used to spike plasma or blood to obtain a final concentration of 0.5 μM. From this initial spiking solution, control samples (n=3), referred to as T=0, were immediately extracted and used to calculate the recovery of the test item.
An equilibrium dialysis method was performed to determine protein binding in the various biological samples described herein. Materials were prepared and methods were in accordance with the following procedures.
Membranes were prepared for use in the equilibrium dialysis experiment. by soaking in deionized water for at least 60 minutes. After this period, 20% of pure ethanol was added, and the membranes were left in this solution for at least 20 minutes. The membranes were then rinsed in Milli-Q water prior to use.
To initiate the experiment, 150 μL of test item-free buffer (isotonic phosphate buffer for plasma and blood, artificial CSF buffer for brain or HBSS buffer for lung) was dispensed on one half-well of a 96-well dialyzer apparatus (HTDialysis LLC), and 150 μL of spiked matrix (plasma, blood, brain or lung) was loaded on the other half-well. Alternative volumes may be used according to the operating instructions of HTDialysis.
Dialysis buffer was prepared by dissolving Na2HPO4 8.69 g, KH2PO4 1.90 g, and NaCl 4.11 g in […] of MilliQ water, and adjusting the pH to 7.4 with H3PO4. At the end of the equilibration period (device is sealed and incubated under shaking for 5 hours at 37° C.), 50 μL of dialysed matrix will be added to 50 μL of corresponding test item free dialysed buffer, and vice versa for buffer, such that the volume of buffer to matrix will be the same. Samples were extracted by protein precipitation with 300 μL of acetonitrile containing rolipram (for positive ionization mode) or diclofenac (for negative ionization mode) as internal standard and centrifuged for 10 minutes at 2800 rpm. Supernatants were collected (100 μL), diluted with 18% ACN in Milli Q water (200 μL).
Samples were then injected onto an HPLC MS/MS or UPLC MS/MS system. In order to control the integrity of the membrane after the dialysis process, the presence of protein was assessed in the buffer compartment. 5 μL of dialysed buffer will be added with 250 μL of Bio-Rad protein assay reagent (Bio-Rad) diluted 1:5 with Milli-Q water. A change in color from brown to a brilliant blue indicates protein contamination. Contaminated samples were excluded from all calculations.
Samples were analyzed in a LC-MS/MS system using an analytical method to monitor the compound to internal standard peak area ratios as representative of the compound concentrations. Alternatively, samples were analyzed by RapidFire.
Protein binding in plasma, blood, brain, and lung tissue samples were determined with the following formula: Afu=Buffer/x, wherein “x” may be plasma, blood, brain, or lung, and “Afu” is the apparent fraction unbound, and the other variables refer to the analyte/internal standard ratio determined in their specific compartment (buffer, plasma, blood, brain homogenate, and lung homogenate); Fucr-(1/D)/[(1/Afu)-1+(1/D)], wherein fucr is the fraction unbound corrected, D is the matrix dilution factor (D=1 for plasma, 2 for blood, 3 for brain, 7 for lung). % Binding=(1−fucr)×100 and % Unbound=100—% Bound. See, e.g., Kalvass et al., Drug Metab Dispos., 2018; 46(4):458-469. […]
A general note: Equilibrium dialysis compares concentrations on both sides of a semipermeable membrane.

The structures appear in SMILES notation.

For `COc1ccc2c(c1)CC(N)C2` (centres unmarked) [MEAI, 5-methoxy-2-aminoindane], the fraction unbound at 5 h, 0.5 μM was greater than 0.5.

For the compound `COC(=O)COc1ccc2c(c1)CC(N)C2` (centres unmarked) [CMP-402], the “Human Plasma (Fu %)” value was greater than 50% and the fraction unbound at 5 h, 0.5 μM is greater than 0.5.

Take `CNC(C)Cc1ccc2c(c1)OCO2` (centres unmarked) [MDMA]: the “Human Plasma (Fu %)” value was greater than 50%.

As to `COC(=O)c1cc2c(cc1OC)CC(N)C2` (centres unmarked) [CMP-401], the “Human Plasma (Fu %)” value is greater than 50% and the fraction unbound at 5 h, 0.5 μM was greater than 0.5.

Turning to `COc1cc2c(cc1C)CC(N)C2` (centres unmarked) [MMAI, 5-methoxy-6-methyl-2-aminoindane], the fraction unbound at 5 h, 0.5 μM is greater than 0.5.

Consider `COC(=O)c1ccc2c(c1)CC(N)C2` (centres unmarked) [CMP-405, 2-aminoindane-5-methylcarboxylate], for which the “Human Plasma (Fu %)” value is “high binding in plasma specimens and Low”.
